# Data taken from ChEMBL document CHEMBL5104111, “Boron-Containing heterocycles as promising pharmacological agents” (Bioorg Med Chem, 2022).
# How the values were obtained:
# Trypanosoma brucei [1] = test: Antiparasitic activity against Trypanosoma brucei 427 assessed as parasite growth inhibition incubated for 24 hrs by fluorescence based assay; type: functional, organism-based; conditions: Trypanosoma brucei, 427, 24 h
# Trypanosoma brucei [2] = test: Antitrypanosomal activity against Trypanosoma brucei assessed as parasite growth inhibition; type: functional, organism-based
# [3] = system: Mycobacterium tuberculosis; test: Antibacterial activity against Mycobacterium tuberculosis assessed as bacterial growth inhibition by broth microdilution method; type: functional
# Klebsiella aerogenes = test: Antibacterial activity against Enterobacter aerogenes ATCC 13048 assessed as bacterial growth inhibition at 10 mg/ml by hollow agar method; type: functional; conditions: read-out: IZ
# Onchocerca volvulus = test: Antiparasitic activity against third stage larvae of Onchocerca volvulus assessed as parasite growth inhibition incubated for 6 days by inverted microscopy; type: functional, organism-based; conditions: 144 h
# [4] = system: Staphylococcus epidermidis; test: Antibacterial activity against Staphylococcus epidermidis assessed as bacterial growth inhibition by broth microdilution method; type: functional
# Escherichia coli [5] = test: Antibacterial activity against Escherichia coli expressing tolC assessed as bacterial growth inhibition by broth microdilution method; type: functional
# Staphylococcus aureus = test: Antibacterial activity against healthcare-associated Methicillin-resistant Staphylococcus aureus assessed as bacterial growth inhibition; type: functional
# [6] = Lipophilicity, log P of the compound; type: physicochemical; conditions: octanol/water
# [7] = AUC in Sprague-Dawley rat at 1 mg/kg, po measured upto 7 hrs by LC/MS analysis; type: ADME, organism-based; design: dose 1 mg/kg, time < 7 hrs, route po; conditions: in vivo
# [8] = target: Cyclin-dependent kinase 2 (Homo sapiens, UniProt P24941); test: Inhibition of CDK2 (unknown origin) using peptide substrate in presence of ATP
# [9] = Bioavailability in Sprague-Dawley rat […] measured upto 7 hrs by LC/MS analysis; type: ADME, organism-based; conditions: in vivo
# [10] = Tmax in Sprague-Dawley rat at 1 mg/kg, po or 1 mg/kg, iv measured upto 7 hrs by LC/MS analysis; type: ADME, organism-based; conditions: in vivo
# [11] = Cmax in Sprague-Dawley rat at 1 mg/kg, po or 1 mg/kg, iv measured upto 7 hrs by LC/MS analysis; type: ADME, organism-based; design: time < 7 hrs, dose 1 mg/kg, route po; conditions: in vivo
# [12] = Half life in Sprague-Dawley rat at 1 mg/kg, po or 1 mg/kg, iv measured upto 7 hrs by LC/MS analysis; type: ADME, organism-based; conditions: in vivo
# HepG2 = test: Cytotoxicity against human HepG2 cells assessed as cell growth inhibition incubated for 2 days by Cell Titer Glo assay; type: functional, cell-based; conditions: HepG2, 48 h
# [13] = system: Mycobacterium tuberculosis; test: Antibacterial activity against Mycobacterium tuberculosis H37Rv ATCC 25618 assessed as bacterial growth inhibition cultured in solid media incubated for 3 to 4 weeks; type: functional; conditions: time 3-4 weeks
# [14] = system: Mycobacterium tuberculosis; test: Antibacterial activity against Mycobacterium tuberculosis H37Rv ATCC 25618 assessed as bacterial growth inhibition cultured in liquid media for 5 days by absorbance based assay; type: functional; conditions: H37Rv ATCC 25618, 120 h, time 5 day
# [15] = system: Mycobacterium tuberculosis; test: Antibacterial activity against Mycobacterium tuberculosis H37Rv ATCC 25618 infected in human THP-1 cells assessed as bacterial growth inhibition at MOI of 1 incubated for 3 days by Cell Titer Glo assay; type: functional, organism-based; conditions: H37Rv ATCC 25618, THP-1, 72 h
# [16] = Half life in human; type: ADME
# Hepatitis C virus = test: Antiviral activity against HCV GT1a316Y assessed as reduction in viral replication; type: functional, organism-based, Hepacivirus hominis
# [17] = Dissociation constant, pKa of the compound; type: physicochemical
# [18] = target: cAMP and cAMP-inhibited cGMP 3',5'-cyclic phosphodiesterase 10A (Homo sapiens, UniProt Q9Y233); test: Inhibition of PDE10A (unknown origin)
# cAMP and cAMP-inhibited cGMP 3',5'-cyclic phosphodiesterase 10A, sequence (Q9Y233 whole entry): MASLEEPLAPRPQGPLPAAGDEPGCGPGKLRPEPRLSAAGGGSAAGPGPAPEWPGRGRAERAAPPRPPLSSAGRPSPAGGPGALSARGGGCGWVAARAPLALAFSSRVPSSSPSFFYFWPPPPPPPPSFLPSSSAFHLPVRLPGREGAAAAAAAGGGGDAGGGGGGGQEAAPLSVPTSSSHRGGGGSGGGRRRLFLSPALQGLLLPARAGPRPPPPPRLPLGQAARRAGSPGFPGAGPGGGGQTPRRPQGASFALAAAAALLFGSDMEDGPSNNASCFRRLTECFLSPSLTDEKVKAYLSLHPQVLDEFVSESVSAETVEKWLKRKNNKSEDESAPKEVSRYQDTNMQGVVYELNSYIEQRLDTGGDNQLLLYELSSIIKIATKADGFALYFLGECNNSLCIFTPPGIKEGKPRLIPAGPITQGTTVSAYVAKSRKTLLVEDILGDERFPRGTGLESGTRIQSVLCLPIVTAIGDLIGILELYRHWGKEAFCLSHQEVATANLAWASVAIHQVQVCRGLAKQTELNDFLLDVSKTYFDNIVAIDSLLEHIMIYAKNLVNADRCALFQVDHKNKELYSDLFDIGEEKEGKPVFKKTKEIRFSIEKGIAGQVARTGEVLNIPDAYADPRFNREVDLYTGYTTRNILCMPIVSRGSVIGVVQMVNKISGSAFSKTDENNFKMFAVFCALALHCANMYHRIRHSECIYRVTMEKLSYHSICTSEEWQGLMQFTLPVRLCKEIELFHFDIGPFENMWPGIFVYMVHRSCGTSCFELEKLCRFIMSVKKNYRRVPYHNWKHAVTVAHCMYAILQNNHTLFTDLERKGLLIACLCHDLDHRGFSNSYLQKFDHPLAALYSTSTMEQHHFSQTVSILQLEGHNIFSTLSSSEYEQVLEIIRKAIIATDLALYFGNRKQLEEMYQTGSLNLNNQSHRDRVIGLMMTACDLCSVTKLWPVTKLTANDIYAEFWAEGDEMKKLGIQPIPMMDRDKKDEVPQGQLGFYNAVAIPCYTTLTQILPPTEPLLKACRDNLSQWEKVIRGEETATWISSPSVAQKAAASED
# Plasmodium falciparum [19] = test: Antimalarial activity against Plasmodium falciparum 3D7 assessed as parasite growth inhibition; type: functional, organism-based
# Plasmodium falciparum [20] = test: Antimalarial activity against Plasmodium falciparum W2 assessed as parasite growth inhibition; type: functional, organism-based
# Aspergillus niger [21] = test: Antifungal activity against Aspergillus niger assessed as fungal growth inhibition incubated for 48 hrs by agar diffusion method; type: functional
# Penicillium ochrochloron = test: Antifungal activity against Penicillium ochrochloron assessed as fungal growth inhibition incubated for 72 hrs by agar diffusion method; type: functional
# Candida albicans = test: Antifungal activity against Candida albicans assessed as fungal growth inhibition incubated for 48 hrs by agar diffusion method; type: functional
# Aspergillus niger [22] = test: Antifungal activity against Aspergillus niger assessed as fungal growth inhibition; type: functional
# LN-229 = test: Anticancer activity against human LN-229 cells assessed as cell growth inhibition by trypan blue exclusion assay; type: functional, cell-based
# [23] = Inhibition of beta-lactamase TEM-1 (unknown origin) using nitrocefin as substrate preincubated for 5 mins followed by substrate addition measured after 1 to 5 mins by colorimetry; design: species or system Bacteria
# [24] = Inhibition of beta-lactamase CTX-M-15 (unknown origin) using nitrocefin as substrate preincubated for 5 mins followed by substrate addition measured after 1 to 5 mins by colorimetry; design: species or system Bacteria
# [25] = Inhibition of beta-lactamase P99 (unknown origin) using nitrocefin as substrate preincubated for 5 mins followed by substrate addition measured after 1 to 5 mins by colorimetry; design: species or system Bacteria
# [26] = Inhibition of beta-lactamase KPC-2 (unknown origin) using nitrocefin as substrate preincubated for 5 mins followed by substrate addition measured after 1 to 5 mins by colorimetry; design: species or system Bacteria
# [27] = Inhibition of beta-lactamase OXA-24 (unknown origin) using nitrocefin as substrate preincubated for 5 mins followed by substrate addition measured after 1 to 5 mins in presence of KHCO3 by colorimetry; design: species or system Bacteria
# [28] = target: T1, 3',5'-cyclic-AMP phosphodiesterase 4B (Homo sapiens, UniProt Q07343); test: Displacement of […] from full-length recombinant human PDE4B2 by fluorescence polarisation assay
# T1 sequence (Q07343 whole entry, the tested form may be a part): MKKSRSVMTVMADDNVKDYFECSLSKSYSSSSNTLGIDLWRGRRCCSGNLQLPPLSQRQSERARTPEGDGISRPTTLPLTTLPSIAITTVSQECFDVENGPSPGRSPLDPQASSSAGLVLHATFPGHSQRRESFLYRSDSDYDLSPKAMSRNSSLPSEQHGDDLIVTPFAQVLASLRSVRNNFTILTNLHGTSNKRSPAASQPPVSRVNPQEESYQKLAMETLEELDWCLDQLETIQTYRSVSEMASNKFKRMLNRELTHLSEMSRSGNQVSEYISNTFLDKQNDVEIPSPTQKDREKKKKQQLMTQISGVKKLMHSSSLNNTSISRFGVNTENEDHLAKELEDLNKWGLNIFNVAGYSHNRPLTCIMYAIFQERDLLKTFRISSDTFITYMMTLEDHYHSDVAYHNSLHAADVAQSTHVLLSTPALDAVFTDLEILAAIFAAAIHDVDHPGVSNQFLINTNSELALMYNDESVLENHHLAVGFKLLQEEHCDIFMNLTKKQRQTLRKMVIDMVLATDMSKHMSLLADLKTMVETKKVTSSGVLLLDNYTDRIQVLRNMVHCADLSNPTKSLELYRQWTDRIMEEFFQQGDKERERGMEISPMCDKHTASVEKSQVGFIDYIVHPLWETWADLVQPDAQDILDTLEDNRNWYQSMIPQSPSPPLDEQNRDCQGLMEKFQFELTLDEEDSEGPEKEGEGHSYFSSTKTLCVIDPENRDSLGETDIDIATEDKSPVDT
# [29] = target: T1, 3',5'-cyclic-AMP phosphodiesterase 4B; test: Displacement of […] from full-length recombinant human PDE4B2 catalytic domain by fluorescence polarisation assay
# [30] = target: T1, 3',5'-cyclic-AMP phosphodiesterase 4B; test: Displacement of […] from full-length recombinant human PDE4B1 by fluorescence polarisation assay
# [31] = target: 3',5'-cyclic-AMP phosphodiesterase 4D (Homo sapiens, UniProt Q08499); test: Displacement of […] from full-length recombinant human PDE4D7 by fluorescence polarisation assay
# 3',5'-cyclic-AMP phosphodiesterase 4D, sequence (Q08499 whole entry): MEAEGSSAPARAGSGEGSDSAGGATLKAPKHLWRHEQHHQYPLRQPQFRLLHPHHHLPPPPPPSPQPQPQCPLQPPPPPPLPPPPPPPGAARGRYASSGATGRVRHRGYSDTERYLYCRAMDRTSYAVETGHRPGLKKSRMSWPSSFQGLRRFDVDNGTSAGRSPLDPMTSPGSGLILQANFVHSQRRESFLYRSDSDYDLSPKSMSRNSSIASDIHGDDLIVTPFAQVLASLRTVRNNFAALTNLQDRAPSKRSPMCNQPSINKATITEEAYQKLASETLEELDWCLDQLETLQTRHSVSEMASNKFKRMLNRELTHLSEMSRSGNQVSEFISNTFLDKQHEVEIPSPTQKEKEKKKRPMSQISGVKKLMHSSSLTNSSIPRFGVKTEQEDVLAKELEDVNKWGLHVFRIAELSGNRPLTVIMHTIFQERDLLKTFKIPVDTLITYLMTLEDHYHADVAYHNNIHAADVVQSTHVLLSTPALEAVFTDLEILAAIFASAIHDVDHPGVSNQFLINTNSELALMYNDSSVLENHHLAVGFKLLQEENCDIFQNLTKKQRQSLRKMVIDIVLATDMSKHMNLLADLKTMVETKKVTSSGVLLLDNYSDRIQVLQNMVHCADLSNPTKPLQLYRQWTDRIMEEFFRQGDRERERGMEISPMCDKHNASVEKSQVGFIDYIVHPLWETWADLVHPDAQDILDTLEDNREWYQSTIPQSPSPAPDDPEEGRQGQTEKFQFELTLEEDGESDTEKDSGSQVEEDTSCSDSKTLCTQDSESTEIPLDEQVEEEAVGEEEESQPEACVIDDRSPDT
# [32] = target: 3',5'-cyclic-AMP phosphodiesterase 4C (Homo sapiens, UniProt Q08493); test: Displacement of […] from full-length recombinant human PDE4C1 by fluorescence polarisation assay
# 3',5'-cyclic-AMP phosphodiesterase 4C, sequence (Q08493 whole entry): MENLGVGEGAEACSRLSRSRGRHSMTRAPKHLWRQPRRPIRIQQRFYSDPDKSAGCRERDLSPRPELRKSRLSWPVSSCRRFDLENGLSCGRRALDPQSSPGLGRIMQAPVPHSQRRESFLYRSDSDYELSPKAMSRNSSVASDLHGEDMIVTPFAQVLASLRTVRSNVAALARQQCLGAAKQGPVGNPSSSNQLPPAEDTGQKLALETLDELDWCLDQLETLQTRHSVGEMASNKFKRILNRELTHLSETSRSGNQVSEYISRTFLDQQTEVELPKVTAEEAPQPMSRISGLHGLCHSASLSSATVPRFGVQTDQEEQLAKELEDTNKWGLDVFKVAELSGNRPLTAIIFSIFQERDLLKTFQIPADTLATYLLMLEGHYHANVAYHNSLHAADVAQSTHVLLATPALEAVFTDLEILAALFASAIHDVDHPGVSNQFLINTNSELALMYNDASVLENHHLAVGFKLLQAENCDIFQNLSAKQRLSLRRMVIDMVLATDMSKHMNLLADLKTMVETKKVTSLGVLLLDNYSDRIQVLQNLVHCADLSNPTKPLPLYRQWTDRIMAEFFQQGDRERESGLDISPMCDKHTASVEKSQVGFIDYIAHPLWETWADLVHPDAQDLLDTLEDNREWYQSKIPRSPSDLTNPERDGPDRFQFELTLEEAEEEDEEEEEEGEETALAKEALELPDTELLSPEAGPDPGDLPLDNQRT
# [33] = system: Mycobacterium tuberculosis; test: Antibacterial activity against Mycobacterium tuberculosis H37Rv assessed as bacterial growth inhibition cultured in 7H9 medium measured after 14 days by absorbance based assay; type: functional; conditions: 336 h, time 14 day
# [34] = system: Mycobacterium tuberculosis; test: Antibacterial activity against Mycobacterium tuberculosis H37Rv assessed as bacterial growth inhibition cultured in GAST medium measured after 14 days by absorbance based assay; type: functional; conditions: 336 h, time 14 day
# [35] = Inhibition of Escherichia coli LeuRS using Escherichia coli tRNA as substrate incubated for 20 mins in presence of 14C-leucine/ATP
# [36] = Bioavailability in monkey; type: ADME, organism-based, Macaca mulatta; conditions: rhesus monkey, in vivo
# Escherichia coli [37] = test: Antibacterial activity against Escherichia coli ATCC 25922 assessed as bacterial growth inhibition; type: functional
# THP-1 = test: Antiinflammatory activity against human THP-1 cells assessed as inhibition of LPS-stimulated IL-1beta release measured after 1 hr by ELISA; type: functional, cell-based; conditions: THP-1, 1 h
# Plasmodium falciparum [38] = test: Antimalarial activity against multidrug-resistant Plasmodium falciparum W2 assessed as parasite growth inhibition incubated for 48 hrs by FACS analysis; type: functional, organism-based; conditions: W2, 48 h
# [39] = Binding affinity to Candida glabrata beta-carbonic anhydrase assessed as inhibition constant preincubated for 15 mins by bromothymol blue staining based assay; design: species or system Nakaseomyces glabratus
# [40] = Binding affinity to Cryptococcus neoformans beta-carbonic anhydrase assessed as inhibition constant preincubated for 15 mins by bromothymol blue staining based assay
# Carbonic anhydrase 1 = Carbonic anhydrase 1 (Homo sapiens, UniProt P00915); test: Binding affinity to human CA-I assessed as inhibition constant preincubated for 15 mins by bromothymol blue staining based assay
# Carbonic anhydrase 1, sequence (P00915 whole entry): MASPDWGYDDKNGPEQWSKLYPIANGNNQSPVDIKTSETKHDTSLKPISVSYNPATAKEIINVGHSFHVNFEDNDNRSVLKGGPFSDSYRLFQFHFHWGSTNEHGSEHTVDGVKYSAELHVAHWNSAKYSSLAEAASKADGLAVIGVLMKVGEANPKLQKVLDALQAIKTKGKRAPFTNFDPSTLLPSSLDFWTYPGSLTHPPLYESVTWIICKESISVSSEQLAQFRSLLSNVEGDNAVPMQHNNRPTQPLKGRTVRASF
# Carbonic anhydrase 2 = Carbonic anhydrase 2 (Homo sapiens, UniProt P00918); test: Binding affinity to human CA-II assessed as inhibition constant preincubated for 15 mins by bromothymol blue staining based assay
smiles,measurement,setting,value
O=C(/C=C/c1ccc2c(c1)OCO2)Nc1ccc2c(c1)B(O)OC2,IC50,Trypanosoma brucei [1],0.086 µM
same,IC50,Trypanosoma brucei [2],0.1 µM
same,MIC99,[3],40.7 µM
CCN(CC)c1ccc(B2Oc3ccc(C(C)(C)C)cc3O2)cc1,zone of inhibition at 10000 µg/mL,Klebsiella aerogenes,30.3 mm
COC(=O)Nc1nc2cc(C(=O)NCc3ccc4c(c3)B(O)OC4(C)C)ccc2[nH]1,IC50,Onchocerca volvulus,0.3 µM
CC[C@H]1OC(=O)[C@H](C)[C@@H](O[C@H]2C[C@@](C)(OC)[C@@H](O)[C@H](C)O2)[C@H](C)[C@@H](O[C@@H]2O[C@H](C)C[C@H](N(C)C)[C@H]2O)[C@](C)(OC)C[C@@H](C)/C(=N\OCC(=O)NC[C@H]2OB(O)c3ccccc32)[C@H](C)[C@@H](O)[C@]1(C)O,MIC,[4],0.5 µg/mL
same,MIC,Escherichia coli [5],8 µg/mL
OCc1ccc2c(c1)C=CB(c1ccc(O)c(C34CC5CC(CC(C5)C3)C4)c1)N2,MIC,Staphylococcus aureus,64 µM
same,logP,[6],0.12
O=C(Cc1ccc(B2C=CC=CN2)cc1)Nc1cc(C2CC2)[nH]n1,AUC at 7 h,[7],0.613 µM·h
same,IC50,[8],0.087 µM
same,bioavailability,[9],29.3%
same,Tmax,[10],1.5 h
same,Cmax,[11],746 nM
same,half-life,[12],11.6 h
Cc1c(OCc2ccccc2)ccc2c1B(O)OC2,IC50,HepG2,> 100 µM
same,MIC,[13],0.8 µM
same,MIC,[14],2 µM
same,IC50,[15],3.6 µM
CNC(=O)c1c(-c2ccc(F)cc2)oc2cc(N(c3cc(Cl)c4c(c3)COB4O)S(C)(=O)=O)c(C3CC3)cc12,half-life,[16],60 h
same,EC50,Hepatitis C virus,0.032 µM
same,pKa,[17],5.4
CN(C(=O)c1nc(-c2cccnc2)cs1)c1ccc(OCB2C=Cc3ccccc3N2)cc1,IC50,[18],0.33 µM
Cc1c(Oc2cnc(C(=O)N3CC(C)(O)C3)cn2)ccc2c1B(O)OC2,IC50,Plasmodium falciparum [19],43 µM
same,IC50,Plasmodium falciparum [20],33 µM
OB1OC(N2CCN(C3OB(O)c4cccc(F)c43)CC2)c2c(F)cccc21 (stereo unspecified),inhibition zone (IZ),Aspergillus niger [21],41 mm
same,inhibition zone (IZ),Penicillium ochrochloron,41 mm
same,inhibition zone (IZ),Candida albicans,35 mm
OB1OC(N2CCN(c3ccc(F)cc3)CC2)c2ccccc21 (stereo unspecified),MIC,Aspergillus niger [22],62.5 µg/mL
CC(C)[C@@H]1[NH2+][B-](c2ccc(F)cc2F)(c2ccc(F)cc2F)OC1=O,IC50,LN-229,49 µM
Cc1c(Oc2nc(N)ns2)cc2c(c1C)[C@@H](CC(=O)O)OB2O,IC50,[23],< 0.005 µM
same,IC50,[24],< 0.005 µM
same,IC50,[25],0.012 µM
same,IC50,[26],0.026 µM
same,IC50,[27],0.088 µM
CC(C)OCCOc1ncc(Oc2ccc3c(c2)B(O)OC3)cc1C#N,IC50,[28],0.0021 µM
same,IC50,[29],0.0021 µM
same,IC50,[30],0.0021 µM
same,IC50,[31],0.0021 µM
same,IC50,[32],0.0021 µM
Nc1cc2c(cc1Br)COB2O,MIC99,[33],7.8 µM
same,MIC99,[34],1.9 µM
Cl.NC[C@H]1OB(O)c2c1ccc1c2OCO1,IC50,[35],0.38 µM
same,bioavailability,[36],100%
same,MIC,Escherichia coli [37],1 µg/mL
CC(=O)C1=C(C(Cl)(Cl)Cl)N[B-](c2ccccc2)(c2ccccc2)[O+]=C1C,IC50,THP-1,0.574 µM
CCOc1ccc(Br)c2c1B(O)O[C@@H]2CC,IC50,Plasmodium falciparum [38],0.49 µM
O=[N+]([O-])c1ccc(NC(=S)Nc2ccc3c(c2)B(O)OC3)cc1,Ki,[39],0.089 µM
same,Ki,[40],0.088 µM
same,Ki,Carbonic anhydrase 1,6.35 µM
same,Ki,Carbonic anhydrase 2,0.504 µM
